Results on nine compounds are retold here after patent US12544391B2, “CD73 inhibitors” (ORIC Pharmaceuticals, Inc., priority 2019, dated 2026).

pIC50: −log10 of the molar value.

The target in the assay is T1, CD73 (Homo sapiens, UniProt P21589).
T1 sequence (P21589 27-549): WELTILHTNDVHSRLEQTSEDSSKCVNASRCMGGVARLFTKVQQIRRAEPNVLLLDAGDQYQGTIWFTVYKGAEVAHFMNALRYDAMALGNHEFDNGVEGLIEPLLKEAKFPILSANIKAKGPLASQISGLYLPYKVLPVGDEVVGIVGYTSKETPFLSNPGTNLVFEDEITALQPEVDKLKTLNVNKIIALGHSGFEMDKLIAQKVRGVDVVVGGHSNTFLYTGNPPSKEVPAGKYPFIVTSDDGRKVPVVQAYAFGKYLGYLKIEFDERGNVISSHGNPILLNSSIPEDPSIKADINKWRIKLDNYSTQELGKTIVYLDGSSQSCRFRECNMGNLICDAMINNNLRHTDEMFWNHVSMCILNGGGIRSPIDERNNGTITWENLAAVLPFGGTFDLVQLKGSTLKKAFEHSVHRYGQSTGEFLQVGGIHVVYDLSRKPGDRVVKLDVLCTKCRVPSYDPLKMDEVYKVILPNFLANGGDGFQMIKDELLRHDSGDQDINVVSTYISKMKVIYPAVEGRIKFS
Put plainly: CD73 biochemical assay, Malachite Green detection of AMP hydrolysis. The note with it: CD73 320 pM, AMP 15 μM, Malachite Green readout. As to the method:
Assay Reaction Conditions
• Assay Volume: 70 μl • Reaction Volume: 50 μl • CD73: 0.3208 nM • AMP: 15 μM • Assay Buffer: 2 5 mM Tris-HCL, pH 7.4, 0.01% Brij-35, 0.01% BSA, 5 mM MgCl2 Assay Procedure:
A clear 384 well plate was used in this assay.
Made dose titration of testing compounds in assay buffer, 10 points ½ log titrations in duplicates starting at 100 μM. Total volume for each well was 25 μl, with CD73 then added to each well for a final concentration of 320 pM. The solution was then incubated at RT for 15 min. 25 μl of AMP was added to each well for a final concentration of 15 μM, and then incubated at rt for 10 min. 10 μl of Malachite Green Reagent A was then added and allowed to incubate at rt for 10 min. 10 μl of Malachite Green Reagent B was then added and allowed to incubate at rt for 45 min. The absorbance for each sample was read on an Envision plate reader using excitation filter: Cy5 […].
The ability of the compounds disclosed herein to inhibit CD73 activity was quantified and the respective IC50 values were determined. Table 2 provides the biochemical IC50 values of compounds disclosed herein.
On to `COC[C@](Cc1nn[nH]n1)(OC[C@H]1O[C@@H](c2ccc3c(NC4CCCC4)nc(Cl)nn23)[C@H](O)[C@@H]1O)P(=O)(O)O` (single isomer, unassigned) [Example 3], for which the pIC50 is not below 9.30.
Next, `O=P(O)(O)[C@@](CO)(Cc1nn[nH]n1)OC[C@H]1O[C@@H](c2ccc3c(NC4CCCC4)nc(Cl)nn23)[C@H](O)[C@@H]1O` [Example 1, ((R)-2-(((2R,3S,4R,5S)-5-(2-Chloro-4-(cyclopentylamino)pyrrolo[2,1-f][1,2,4]triazin-7-yl)-3,4-dihydroxytetrahydrofuran-2-yl)methoxy)-1-hydroxy-3-(2H-tetrazol-5-yl)propan-2-yl)phosphonic acid]: not below 9.30; `O=P(O)(O)[C@](CO)(Cc1nn[nH]n1)OC[C@H]1O[C@@H](c2ccc3c(NC4CCCC4)nc(Cl)nn23)[C@H](O)[C@@H]1O` [Example 2, ((S)-2-(((2R,3S,4R,5S)-5-(2-Chloro-4-(cyclopentylamino)pyrrolo[2,1-f][1,2,4]triazin-7-yl)-3,4-dihydroxytetrahydrofuran-2-yl)methoxy)-1-hydroxy-3-(2H-tetrazol-5-yl)propan-2-yl)phosphonic acid]: 7.00 to 9.00.
`COC[C@@](Cc1nn[nH]n1)(OC[C@H]1O[C@@H](c2ccc3c(NC4CCCC4)nc(Cl)nn23)[C@H](O)[C@@H]1O)P(=O)(O)O` [Example 4, ((S)-2-(((2R,3S,4R,5S)-5-(2-Chloro-4-(cyclopentylamino)pyrrolo[2,1-f][1,2,4]triazin-7-yl)-3,4-dihydroxytetrahydrofuran-2-yl)methoxy)-1-methoxy-3-(2H-tetrazol-5-yl)propan-2-yl)phosphonic acid]: the pIC50 is 7.00 to 9.00.
Next, `COC[C@](CO)(OC[C@H]1O[C@@H](c2ccc3c(NC4CCCC4)nc(Cl)nn23)[C@H](O)[C@@H]1O)P(=O)(O)O` [Example 6, ((R)-2-(((2R,3S,4R,5S)-5-(2-Chloro-4-(cyclopentylamino)pyrrolo[2,1-f][1,2,4]triazin-7-yl)-3,4-dihydroxytetrahydrofuran-2-yl)methoxy)-1-hydroxy-3-methoxypropan-2-yl)phosphonic acid]: not below 9.30; `COC[C@@](CO)(OC[C@H]1O[C@@H](c2ccc3c(NC4CCCC4)nc(Cl)nn23)[C@H](O)[C@@H]1O)P(=O)(O)O` [Example 7, ((S)-2-(((2R,3S,4R,5S)-5-(2-chloro-4-(cyclopentylamino)pyrrolo[2,1-f][1,2,4]triazin-7-yl)-3,4-dihydroxytetrahydrofuran-2-yl)methoxy)-1-hydroxy-3-methoxypropan-2-yl)phosphonic acid]: 7.00 to 9.00.
Regarding `COCC(OC[C@H]1O[C@@H](c2ccc3c(NC4CCCC4)nc(Cl)nn23)[C@H](O)[C@@H]1O)(C(=O)O)P(=O)(O)O` (stereo partly drawn) [Example 8, 2-(((2R,3S,4R,5S)-5-(2-Chloro-4-(cyclopentylamino)pyrrolo[2,1-f][1,2,4]triazin-7-yl)-3,4-dihydroxytetrahydrofuran-2-yl)methoxy)-3-methoxy-2-phosphonopropanoic acid], the pIC50 is 9.00 to 9.30.
The figure for `COC[C@@](COCc1nn[nH]n1)(OC[C@H]1O[C@@H](c2ccc3c(NC4CCCC4)nc(Cl)nn23)[C@H](O)[C@@H]1O)P(=O)(O)O` [Example 10, ((R)-1-((2H-tetrazol-5-yl)methoxy)-2-(((2R,3S,4R,5S)-5-(2-chloro-4-(cyclopentylamino)pyrrolo[2,1-f][1,2,4]triazin-7-yl)-3,4-dihydroxytetrahydrofuran-2-yl)methoxy)-3-methoxypropan-2-yl)phosphonic acid] is 7.00 to 9.00; for `O=P(O)(O)C(CO)(CO)OC[C@H]1O[C@@H](c2ccc3c(NC4CCCC4)nc(Cl)nn23)[C@H](O)[C@@H]1O` [Example 11, (2-(((2R,3S,4R,5S)-5-(2-chloro-4-(cyclopentylamino)pyrrolo[2,1-f][1,2,4]triazin-7-yl)-3,4-dihydroxytetrahydrofuran-2-yl)methoxy)-1,3-dihydroxypropan-2-yl)phosphonic acid] it is 9.00 to 9.30.
